# In patent publication US20260263624A1, “COMBINATION OF ANTIBODY-DRUG CONJUGATE AND CANCER THERAPY, AND USE THEREOF” (GENEQUANTUM HEALTHCARE (SUZHOU) CO., LTD., priority 2023, published 2026):
# Columns and labels:
# [1] = test system: HCC1954 cells (breast cancer HER2-high CDX model); test: In vivo efficacy of GQ01 with chemotherapies in human breast cancer CDX model, HCC1954 (Example 6); parameters: species or system BALB/c nude mice; conditions: for Tumor volume (mm^3), Mean ± SEM: end day (day 32)
# Protocol: I. HCC1954 cells in exponential growth stage were collected and counted for tumor inoculation. 0.2 mL of matrix gel buffer (PBS: Matrigel=1:1) was used to subcutaneously inject 1×10^6 cells into the right flank of SPF female BALB/c nude mice aged 6-8 weeks.
# II. 9 days after inoculation, the tumor diameter was measured with a caliper and the tumor volume was calculated according to the formula V=0.5 a×b2 (wherein a is the long diameter of the tumor and b is the short diameter of the tumor). […] Each group included 6 mice. The day of first administration was defined as day 0. […] The tumor volume of mice in each group was measured twice a week.
# [2] = test system: BT-474 cells (breast cancer HER2-high CDX model); test: In vivo efficacy of GQ01 with chemotherapies in human breast cancer CDX model, BT-474 (Example 5); parameters: species or system BALB/c nude mice; conditions: GQ01 5 mg/kg single dose; for TGI (%): day 25; for Tumor volume (mm^3), Mean ± SEM: end day (day 25)
# Protocol: I. Breast cancer tumor cells were passaged in vivo from BT-474 cells (ATCC, Lot #HTB-20). The cells in exponential growth stage were collected and counted for tumor inoculation. 0.2 mL of matrix gel buffer (PBS: Matrigel=1:1) was used to subcutaneously inject 2×10^6 cells into the right flank of SPF female BALB/c nude mice aged 6-8 weeks. Four days before cell inoculation, BALB/c nude mice had been subcutaneously inoculated with estrogen tablet.
# II. 10 days after inoculation, the tumor diameter was measured with a caliper and the tumor volume was calculated according to the formula V=0.5 a×b2 (wherein a is the long diameter of the tumor and b is the short diameter of the tumor). […] Each group included 6 mice. The day of first administration was defined as day 0. […] The tumor volume of mice in each group was measured twice a week.
# [3] = capecitabine 300 mg/kg QD 2 weeks, combination 5 + 300 mg/kg
# [4] = capecitabine 300 mg/kg QD 2 weeks, combination 5 + 300 mg/kg, listed as capecitabine
# [5] = paclitaxel 10 mg/kg BIW 4 weeks, combination 5 + 10 mg/kg
# [6] = paclitaxel 10 mg/kg BIW 4 weeks, combination 5 + 10 mg/kg, listed as paclitaxel
SMILES,"Tumor volume (mm^3), Mean ± SEM ([1]; table prints GQ01 5 mg/kg and 5 + 300 mg/kg, text GQ01 2 mg/kg single dose, capecitabine 300 mg/kg QD 2 weeks)","Tumor volume (mm^3), Mean ± SEM ([1]; table prints GQ01 5 mg/kg and 5 + 300 mg/kg, text GQ01 2 mg/kg single dose, capecitabine 300 mg/kg QD 2 weeks, listed as capecitabine) [mm^3]","TGI (%) ([1]; text: day 32, footnote: day 25, table prints GQ01 5 mg/kg and 5 + 300 mg/kg, text GQ01 2 mg/kg single dose, capecitabine 300 mg/kg QD 2 weeks)","TGI (%) ([1]; text: day 32, footnote: day 25, table prints GQ01 5 mg/kg and 5 + 300 mg/kg, text GQ01 2 mg/kg single dose, capecitabine 300 mg/kg QD 2 weeks, listed as capecitabine)","TGI (%) [2, 3] [%]","TGI (%) [2, 4] [%]","Tumor volume (mm^3), Mean ± SEM [2, 3] [mm^3]","Tumor volume (mm^3), Mean ± SEM [2, 4] [mm^3]","TGI (%) ([1]; day 32, GQ01 2 mg/kg single dose, paclitaxel 10 mg/kg BIW 4 doses, combination 2 + 10 mg/kg, trastuzumab 5 + pertuzumab 5 (single dose) + paclitaxel 10 mg/kg)","TGI (%) ([1]; day 32, GQ01 2 mg/kg single dose, paclitaxel 10 mg/kg BIW 4 doses, combination 2 + 10 mg/kg, trastuzumab 5 + pertuzumab 5 (single dose) + paclitaxel 10 mg/kg, listed as paclitaxel)","Tumor volume (mm^3), Mean ± SEM ([1]; GQ01 2 mg/kg single dose, paclitaxel 10 mg/kg BIW 4 doses, combination 2 + 10 mg/kg, trastuzumab 5 + pertuzumab 5 (single dose) + paclitaxel 10 mg/kg)","Tumor volume (mm^3), Mean ± SEM ([1]; GQ01 2 mg/kg single dose, paclitaxel 10 mg/kg BIW 4 doses, combination 2 + 10 mg/kg, trastuzumab 5 + pertuzumab 5 (single dose) + paclitaxel 10 mg/kg, listed as paclitaxel) [mm^3]","TGI (%) [2, 5] [%]","TGI (%) [2, 6] [%]","Tumor volume (mm^3), Mean ± SEM [2, 5] [mm^3]","Tumor volume (mm^3), Mean ± SEM [2, 6] [mm^3]"
"CCCCCOC(=O)Nc1nc(=O)n([C@@H]2O[C@H](C)[C@@H](O)[C@H]2O)cc1F [Capecitabine, capecitabine]","1,183 ± 222 mm^3",1183,29.05,29.05,21.01,21.01,858 ± 280,858,,,,,,,,
"CC(=O)O[C@H]1C(=O)[C@@]2(C)[C@H]([C@H](OC(=O)c3ccccc3)[C@]3(O)C[C@H](OC(=O)[C@H](O)[C@@H](NC(=O)c4ccccc4)c4ccccc4)C(C)=C1C3(C)C)[C@]1(OC(C)=O)CO[C@@H]1C[C@@H]2O [Paclitaxel, paclitaxel]",,,,,,,,,26.60,26.60,"1,219 ± 124 mm^3",1219,58.54,58.54,520 ± 87,520
